From US20220362386A1, “LIQUID COMPOSITIONS COMPRISING A LEVODOPA AMINO ACID CONJUGATE AND USES THEREOF” (NeuroDerm, Ltd., priority 2019, published 2022) come the findings set out here.

The nature of series [1]: in vitro. The conditions noted are these: human. How it is done:
Caco-2 cells are human intestinal epithelial cells derived from a colorectal adenocarcinoma.
The assays are performed in both the apical to basolateral (A-B) and the B-A direction. The test compound is prepared at 10 μM in HBSS-HEPES (pH 7.4) with a final DMSO concentration of 1%. The working solution is centrifuged, and the supernatant is added to the donor side. The assay plate is incubated at 37° C. with gentle shaking for 60 min or 40 min for the A-B or B-A assay, respectively. For Pgp substrate assessment, the assays are run with and without 100 μM verapamil on both the A and B sides. For BCRP substrate assessment, the assays are run with and without 10 μM Ko143 on both the A and B sides. For MRP2 substrate assessment, the assays are run with and without 100 μM MK571 on both the A and B sides. Samples are aliquoted from the donor side at time zero and the end point, and from the receiver side at the end point.
Propranolol (highly permeable), labetalol (moderately permeable), ranitidine (poorly permeable), and colchicine (P-glycoprotein substrate), estrone-3-sulfate (BCRP substrate), or CDCF (MRP2 substrate) are included in each assay.
Samples are analyzed by HPLC-MS/MS using selected reaction monitoring. The HPLC system consists of a binary LC pump with an autosampler, a C-18 column, and a gradient. Conditions may be adjusted when necessary.
Fluorescein permeability is assessed in the A-B direction at pH 7.4 on both sides after the permeability assay with the test compound. The cell monolayer with a fluorescein permeability of less than 1.5×10−6 cm/s is considered intact.
The apparent permeability coefficient (Papp) of the test compound and its recovery are calculated as follows: […]
A is the surface area of the cell monolayer (0.11 cm^2). C is concentration of the test compound, expressed as peak area. D denotes donor and R is receiver. 0, mid, and end denote time zero, mid-point, and end of the incubation. Δt is the incubation time. V is the volume of the donor or receiver.
The permeability capabilities of the several LDAA compounds, in their TFA salt form, were determined using the Caco-2 B-A method.

Series [2] is described as follows: Protein binding, solid phase extraction (SPE) method. The class given is in vitro ADME, human. The conditions noted are these: human, human plasma, 1.0E−05M, SPE sample preparation. How it is done:
(§1) A solid phase extraction (SPE) method was used to prepare samples for several compounds in the plasma protein binding assay. The following SPE protocols were followed:
(§2) Sorbent: Waters Oasis MCX 96—well MicroElution Plate—Cat #186001830BA Sample: 200 μL of plasma spiked at 10 μM with test compound. Sample was diluted 1:1 with 4% phosphoric acid in water and mixed for 15 minutes 1) Place Oasis plate on vacuum manifold and set vacuum to 5″ Hg; 2) Condition with 200 μL methanol; 3) Equilibrate with 200 μL water; 4) Load dilute plasma sample; 5) Wash with 200 μL 2% formic acid in water; 6) Wash with 400 μL methanol; and 7) Elute with 100 μL 5% NH4OH in methanol.
(§3) Sorbent: Waters Oasis MAX 96-well MicroElution plate—Cat #186001829 Sample: 200 μL of plasma spiked at 10 μM with test compound. Sample was diluted 1:1 with 4% phosphoric acid in water and mixed for 15 minutes 1) Place Oasis plate on vacuum manifold and set vacuum to 5″ Hg; 2) Condition with 200 μL methanol; 3) Equilibrate with 200 μL water; 4) Load dilute plasma sample; 5) Wash with 200 μL 5% NH4OH in water; 6) Wash with 400 μL methanol; and 7) Elute with 100 μL 2% formic acid in methanol.

The subject of series [3] is human plasma. Described as above. The class given is in vitro ADME. The conditions noted are these: 1.0E−05M; SPE sample preparation. The procedure: as §1, §2, §3
Series [4] can be described thus: Human blood stability test. The class given is in vitro ADME. On the set-up: key: slope of % decrease of remaining compound over time; higher = faster metabolism. Conditions: slope of the percentage decrease of remaining compound; substrate 10 μM; 0-60 minutes. The procedure:
The stability of several LDAA compounds in human blood was tested. The substrate concentration was 10 μM and the incubation time 0, 5, 15, 30 and 60 minutes.
The results are described in Table 19, wherein the results describe the Ke, i.e., the slope of the percentage decrease of the remaining amount of the compound, measured at each of the above time points, such that the higher the Ke the faster the metabolism.

Series [5] is described as follows: Comparative formulation tests, physical stability (Tables 32a-c, 33a-c). It counts as physicochemical. The conditions noted are these: LDAA TFA salt/CD formulation; for Physical stability (visual), Day 1: Day 1, room temperature; for Physical stability (visual), Day 2: Day 2, room temperature; for Physical stability (visual), Day 5: Day 5, room temperature after two days at 2-8° C.; for Physical stability (visual), Day 6: Day 6, room temperature after two days at 2-8° C.; for Physical stability (visual), Day 40: Day 40, returned to 2-8° C. How it is done:
It is noted that the formulations were similarly to those above; however, CD was added, and further, the amounts of the antioxidants, i.e., ascorbic acid and NAC, were added at three different concentrations, as detailed in Tables 32a-c below. Further, an additional amount of arginine was added to the solution in order to adjust the pH to a physiologically acceptable pH.
The formulations prepared as detailed in Tables 32a, 32b and 32c were (a) held at room temperature for two days; (b) transferred to a refrigerator (2-8° C.) for two days; and (c) transferred from the refrigerator to room temperature for an additional two days, during which they were assessed again for precipitants. The formulations were then returned to the refrigerator (2-8° C.) and assessed for precipitants on day 40. The physical stability of each formulation was assessed on the first two days and again on the last two days. The physical stability of the formulations was assessed visually. A clear solution was considered to be stable, while a solution comprising precipitants was considered to be physically unstable. The stability results of the formulations of Tables 32a, 32b and 32c are detailed in Tables 33a, 33b and 33c, respectively.

Setting [6] is: Caco-2, pH 7.4, Percent Recovery 1st.
The mark [7] stands for this setting: Caco-2, pH 7.4, Percent Recovery 2nd.
Setting [8] is: Caco-2, pH 7.4, Percent Recovery Mean.
The mark [9] stands for this setting: Caco-2, pH 7.4, Permeability 1st.
The mark [10] stands for this setting: Caco-2, pH 7.4, Permeability 2nd.
The mark [11] stands for this setting: Caco-2, pH 7.4, Permeability Mean.
Where [12] appears, read: NB 144-15, ~0.1% Asc + ~0.1% NAC.
The mark [13] stands for this setting: NB 144-18, ~0.4% Asc + ~0.4% NAC.
Setting [14] is: NB 144-20, ~0.8% Asc + ~0.8% NAC.

Structures can show the parent of a compound that is named as a salt. Where two headings read alike, the source gives them in different places. Non-standard residues stand in square brackets, D forms with d. Residues, ends and D or L forms follow the SMILES beside them. Dopa = N[C@@H](Cc1ccc(O)c(O)c1)C(=O)O Some results are limits rather than exact numbers.

As to `N[C@@H](Cc1ccc(O)c(O)c1)C(=O)O` [LD (control), L-3,4-dihydroxyphenylalanine, reference compound], the values for the recovery at 40 min, 10 μM in series [1] (setting [6]), in series [1] (setting [7]) and in series [1] (setting [8]) were 101%, 92% and 96%, respectively. Besides, the Papp B→A (usually the apparent permeability from the basolateral to the apical side of a cell layer) at 40 min, 10 μM is 0.38 ×10⁻⁶ cm/s in series [1] (setting [9]), 0.41 ×10⁻⁶ cm/s in series [1] (setting [10]) and below 0.4 ×10⁻⁶ cm/s in series [1] (setting [11]). Further, the recovery at 10 μM stood at 59% in series [2] (read-out: % Recovery 1st), 78% in series [2] (read-out: % Recovery 2nd) and 68% in series [2] (read-out: % Recovery Mean). For the same molecule, in series [3], the “% Protein Bound 1st” value turned out to be 30.4%. Moreover, in series [3], the “% Protein Bound 2nd” value came out at 20.2%. Also, the “% Protein Bound Mean” value in series [3] was 25%.

`NC(=O)CC[C@H](NC(=O)[C@@H](N)Cc1ccc(O)c(O)c1)C(=O)O` [LD-Gln TFA salt, Levodopa Glutamine TFA Salt] (H-[Dopa]-Gln-OH): the recovery at 40 min, 10 μM in series [1] (setting [6]) turned out to be 81%; in series [1] (setting [7]) it was 92%; in series [1] (setting [8]), 87%. Further, the Papp B→A at 40 min, 10 μM turned out to be 1.01 ×10⁻⁶ cm/s in series [1] (setting [9]), 0.79 ×10⁻⁶ cm/s in series [1] (setting [10]) and 0.9 ×10⁻⁶ cm/s in series [1] (setting [11]).

Turning to `NC(=O)C[C@H](NC(=O)[C@@H](N)Cc1ccc(O)c(O)c1)C(=O)O` [LD-Asn TFA salt, Levodopa Asparagine TFA Salt] (H-[Dopa]-Asn-OH), the figures for the recovery at 40 min, 10 μM in series [1] (setting [6]), in series [1] (setting [7]) and in series [1] (setting [8]) were 85%, 84% and 85%, respectively. Besides, the Papp B→A at 40 min, 10 μM in series [1] (setting [9]) came out at 0.42 ×10⁻⁶ cm/s; in series [1] (setting [10]), 0.39 ×10⁻⁶ cm/s; in series [1] (setting [11]) it was 0.4 ×10⁻⁶ cm/s. Also, the Ke in series [4] was 0.0038.

With `N[C@@H](Cc1ccc(O)c(O)c1)C(=O)N[C@@H](Cc1c[nH]c2ccccc12)C(=O)O` [LD-Trp TFA salt, Levodopa Tryptophan] (H-[Dopa]-Trp-OH), the “Physical stability (visual), Day 1” value in series [5] (setting [12]), in series [5] (setting [13]) and in series [5] (setting [14]) was “Stable” in each case. Besides, the “Physical stability (visual), Day 2” value in series [5] (setting [12]), in series [5] (setting [13]) and in series [5] (setting [14]) was “Stable” in each case. The “Physical stability (visual), Day 5” value in series [5] (setting [12]), in series [5] (setting [13]) and in series [5] (setting [14]) was “Stable” each time. Besides, the “Physical stability (visual), Day 6” value in series [5] (setting [12]), in series [5] (setting [13]) and in series [5] (setting [14]) was “Stable” throughout. In addition, the “Physical stability (visual), Day 40” value in series [5] (setting [12]), in series [5] (setting [13]) and in series [5] (setting [14]) was “Stable” throughout. In addition, the recovery at 40 min, 10 μM in series [1] (setting [6]) was found to be 71%; in series [1] (setting [7]) it was 82%; in series [1] (setting [8]) it was 77%. Also, the Papp B→A at 40 min, 10 μM in series [1] (setting [9]) was 0.01 ×10⁻⁶ cm/s; in series [1] (setting [10]), 0.01 ×10⁻⁶ cm/s; in series [1] (setting [11]) it was below 0.01 ×10⁻⁶ cm/s.

As for `N[C@@H](CSC[C@@H](NC(=O)[C@@H](N)Cc1ccc(O)c(O)c1)C(=O)O)C(=O)O` (single isomer, unassigned; peak 1) [LD-LA1 TFA salt, Levodopa Lanthionine Peak 1 TFA Salt], the “Physical stability (visual), Day 1” value in series [5] (setting [12]) was “Stable”; in series [5] (setting [13]), “Precipitated”; in series [5] (setting [14]), “Stable”. The “Physical stability (visual), Day 2” value is reported as “Stable” in series [5] (setting [12]), “Precipitated” in series [5] (setting [13]) and “Stable” in series [5] (setting [14]). Besides, the figures for the “Physical stability (visual), Day 5” value in series [5] (setting [12]), in series [5] (setting [13]) and in series [5] (setting [14]) were “Stable”, “Precipitated” and “Stable”, respectively. Moreover, the results for the “Physical stability (visual), Day 6” value in series [5] (setting [12]), in series [5] (setting [13]) and in series [5] (setting [14]) were “Stable”, “Precipitated” and “Stable”, respectively. The results for the “Physical stability (visual), Day 40” value in series [5] (setting [12]), in series [5] (setting [13]) and in series [5] (setting [14]) were “Stable”, “Precipitated” and “Stable”, respectively. For the same molecule, the results for the recovery at 40 min, 10 μM in series [1] (setting [6]), in series [1] (setting [7]) and in series [1] (setting [8]) were 80%, 86% and 83%, respectively. Moreover, the Papp B→A at 40 min, 10 μM in series [1] (setting [9]) stood at 0.28 ×10⁻⁶ cm/s; in series [1] (setting [10]), 0.22 ×10⁻⁶ cm/s; in series [1] (setting [11]), 0.3 ×10⁻⁶ cm/s. In series [4], this molecule yielded a Ke of −0.011.
